# Literature values, collected in patent publication US10251905B2, “Tissue maintenance” (Hibernation Therapeutics, A KF LLC, priority 2006, dated 2019).
# pKi: −log10 of the molar value.
# Assays:
# [1] = molecular target: T1, NK(2) receptor (Homo sapiens, UniProt P21452); conditions: relative to NK(1)
# T1 sequence (P21452 1-398): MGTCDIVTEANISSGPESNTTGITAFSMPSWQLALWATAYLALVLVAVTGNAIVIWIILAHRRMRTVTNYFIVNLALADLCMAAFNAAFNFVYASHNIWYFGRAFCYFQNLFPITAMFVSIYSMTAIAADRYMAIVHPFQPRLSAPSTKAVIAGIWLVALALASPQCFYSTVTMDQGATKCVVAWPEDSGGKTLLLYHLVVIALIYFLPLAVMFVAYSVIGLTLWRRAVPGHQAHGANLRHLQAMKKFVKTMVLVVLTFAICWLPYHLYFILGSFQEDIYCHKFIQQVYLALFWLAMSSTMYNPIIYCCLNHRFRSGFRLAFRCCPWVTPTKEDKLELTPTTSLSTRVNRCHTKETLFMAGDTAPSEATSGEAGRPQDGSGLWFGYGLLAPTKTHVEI
# [2] = molecular target: human NK(1) receptor (Homo sapiens, UniProt P25103)
# [3] = molecular target: T2, NK(3) receptor (Homo sapiens, UniProt P29371); conditions: relative to NK(1)
# T2 sequence (P29371 1-465): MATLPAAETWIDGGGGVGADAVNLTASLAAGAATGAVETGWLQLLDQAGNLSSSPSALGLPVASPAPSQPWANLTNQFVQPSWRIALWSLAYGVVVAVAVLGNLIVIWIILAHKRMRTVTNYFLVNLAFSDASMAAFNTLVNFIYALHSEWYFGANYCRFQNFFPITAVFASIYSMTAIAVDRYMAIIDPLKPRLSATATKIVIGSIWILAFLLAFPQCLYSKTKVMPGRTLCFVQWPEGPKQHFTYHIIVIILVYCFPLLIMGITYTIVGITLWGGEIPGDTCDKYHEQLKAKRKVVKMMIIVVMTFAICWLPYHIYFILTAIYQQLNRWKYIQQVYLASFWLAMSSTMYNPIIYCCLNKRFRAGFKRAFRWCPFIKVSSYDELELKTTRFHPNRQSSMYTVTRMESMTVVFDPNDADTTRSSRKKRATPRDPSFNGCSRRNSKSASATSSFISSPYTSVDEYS
# human NK(1) receptor, sequence (P25103 whole entry): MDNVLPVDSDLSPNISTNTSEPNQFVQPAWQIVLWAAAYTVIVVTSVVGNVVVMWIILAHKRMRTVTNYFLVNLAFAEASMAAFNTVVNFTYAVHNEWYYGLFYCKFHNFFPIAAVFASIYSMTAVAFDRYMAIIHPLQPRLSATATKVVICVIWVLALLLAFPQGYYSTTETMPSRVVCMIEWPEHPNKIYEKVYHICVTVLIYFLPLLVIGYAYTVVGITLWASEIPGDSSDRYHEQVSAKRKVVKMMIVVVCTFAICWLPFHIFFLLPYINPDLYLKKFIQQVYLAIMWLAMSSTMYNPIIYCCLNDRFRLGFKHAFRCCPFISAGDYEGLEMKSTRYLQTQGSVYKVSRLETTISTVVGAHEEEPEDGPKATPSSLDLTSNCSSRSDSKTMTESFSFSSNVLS
Compound,selectivity toward NK(2) receptors [1],pKi [2],selectivity toward NK(3) receptors [3],half life in the blood
"Cc1cccc(C)c1NC(=O)C[C@H]1CCN(C(=O)c2cc(C(F)(F)F)cc(C(F)(F)F)c2)[C@@H](Cc2ccccc2)C1.O=C(O)C[C@H](O)C(=O)O (relative stereo) [R116301, (2R-trans)-4-[1-[3,5-bis(trifluoromethyl)benzoyl]-2-(phenylmethyl)-4-piperidinyl]-N-(2,6-dimethylphenyl)-1-acetamide (S)-Hydroxybutanedioate]",over 200 fold,9.35,over 200 fold,
Nc1ncnc2c1ncn2[C@@H]1O[C@H](CO)[C@@H](O)[C@H]1O [adenosine],,,,about 10 seconds
